# Results published in patent publication US20040005537A1, “Method of identifying toxic agents using differential gene expression” (priority 2000, published 2004).
# System: rat heart tissue
# Experiment: GENECALLING differential gene expression analysis after dosing of serotonin modulating agents
# Type: in vivo, Sprague Dawley rats
# In short: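 GENECALLING profiling of cDNA from total RNA, keeping gene fragments modulated beyond ±1.5-fold. Tissue collected 24 h after final dosing of serotonin modulating agents; control rats received sterile water or canola oil.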
smiles,measurement,setting,value
CNS(=O)(=O)Cc1ccc2[nH]cc(CCN(C)C)c2c1 [sumatriptan],"Effects on Transcription Level: Novel gene fragment, 524 bp, 86% SI to mouse F-box protein FBX6b [AF176526]",CARDIOTOX 1,+1.5 fold
same,"Effects on Transcription Level: Novel gene fragment, 306 bp, 91% SI to mouse low density lipoprotein receptor related protein 4 [AB013874]",CARDIOTOX 2,−1.6 fold
same,"Effects on Transcription Level: Novel gene fragment, 540 bp, 97% SI to mouse skeletal muscle alpha-actin [X03766]",CARDIOTOX 3,+2.4 fold
same,"Effects on Transcription Level: Novel gene fragment, 80 bp",CARDIOTOX 4,−1.4 fold
same,"Effects on Transcription Level: Novel gene fragment, 957 bp, 99% SI to kidney injury associated moleculer HW036 [V80591]",CARDIOTOX 5,−1.6 fold
same,"Effects on Transcription Level: Novel gene fragment, 282 bp, 85% SI to human KIAA1515 protein [AB040948]",CARDIOTOX 6,−1.7 fold
same,"Effects on Transcription Level: Novel gene fragment, 405 bp, 88% SI to human 2-oxoglutarate dehydrogenase [D10523]",CARDIOTOX 7,+1.5 fold
same,Effects on Transcription Level: UCP2,"CARDIOTOX 8, GenBank AB010743",−1.6 fold
same,Effects on Transcription Level: Plasma membrane Ca2 + ATPase-isoform 1,"CARDIOTOX 9, GenBank J03753",−1.6 fold
same,"Effects on Transcription Level: Novel gene fragment, 242 bp, 97% SI to mouse HSP86 heat-shock protein [X16857]",CARDIOTOX 10,+1.4 fold
same,"Effects on Transcription Level: Novel gene fragment, 280 bp, 65% SI to human TRF1-interacting, ankyrin-related ADP-ribose polymerase [AF082556]",CARDIOTOX 11,+1.4 fold
same,"Effects on Transcription Level: Novel gene fragment, 348 bp, 88% SI to mouse Sec61 protein complex gamma subunit [U11027]",CARDIOTOX 12,+1.3 fold
same,"Effects on Transcription Level: Novel gene fragment 553 bp, 93% SI to mouse Sid329 [AB024984]",CARDIOTOX 13,+1.4 fold
same,Effects on Transcription Level: Kruppel-like transcription factor,"CARDIOTOX 14, GenBank AB020759",+1.3 fold
same,Effects on Transcription Level: Ribosomal protein L3,"CARDIOTOX 15, GenBank X62166",+1.4 fold
same,Effects on Transcription Level: Glucose-regulated protein (GRP) 75,"CARDIOTOX 16, GenBank S78556",+1.4 fold
same,Effects on Transcription Level: Immunoglobulin heavy chain binding protein (BiP),"CARDIOTOX 17, GenBank M14050",+1.4 fold
same,Effects on Transcription Level: Membrane-spannining proteoglycan NG2,"CARDIOTOX 18, GenBank X56541",−1.5 fold
same,"Effects on Transcription Level: Novel gene fragment, 1294 bp, 96% SI to mouse Sui 1 (elF) homolog [AF129888]",CARDIOTOX 19,+1.6 fold
same,"Effects on Transcription Level: Novel gene fragment, 723 bp, 85% SI to human translation initiation factor elF3 p40 subunit [U54559]",CARDIOTOX 20,+1.6 fold
same,"Effects on Transcription Level: Novel gene fragment, 1324 bp, 76% SI to human flavoprotein subunit of complex II [D30648]",CARDIOTOX 21,+1.5 fold
same,"Effects on Transcription Level: Novel gene fragment, 852 bp, 81% SI to human vacuolar proton-ATPase subunit M9.2 [Y15286]",CARDIOTOX 22,+1.5 fold
same,"Effects on Transcription Level: Novel gene fragment, 178 bp, 91% SI to mouse myosin light chain-2 isoform MLC-2a [S70785]",CARDIOTOX 23,+1.4 fold
same,"Effects on Transcription Level: Novel gene fragment, 167 bp, 90% SI to mouse Rab20 [X80332]",CARDIOTOX 24,+1.9 fold
same,"Effects on Transcription Level: Novel gene fragment, 1070 bp, 80% SI to human muscle-specific protein [AF249873]",CARDIOTOX 25,+1.5 fold
same,"Effects on Transcription Level: Novel gene fragment, 1143 bp, 82% SI to human sarcoma amplified sequence (SAS) [U01160]",CARDIOTOX 26,+1.7 fold
same,"Effects on Transcription Level: Novel gene fragment, 74 bp,75% SI to human secreted protein [X30160] (from patent database)/[X97578] (from patent database)/potential cytokine)",CARDIOTOX 27,+1.5 fold
same,"Effects on Transcription Level: Novel gene fragment, 408 bp, 90% SI to human CGI-07 protein [AF132941]",CARDIOTOX 28,+1.6 fold
same,"Effects on Transcription Level: Novel gene fragment, 618 bp, 95% SI to rat progression related cDNA, ZNPE-120 3′ end partial sequence [patent database X90805]",CARDIOTOX 29,+1.5 fold
same,"Effects on Transcription Level: Novel gene fragment, 717 bp",CARDIOTOX 30,+1.5 fold
same,"Effects on Transcription Level: Novel gene fragment, 546 bp",CARDIOTOX 31,+1.8 fold
same,"Effects on Transcription Level: Novel gene fragment, 920 bp, 91% SI to human HSPC061 [AF161546]",CARDIOTOX 32,+1.5 fold
same,"Effects on Transcription Level: Novel gene fragment, 203 bp, 92% SI to rabbit sarcoplasmic reticulum glycoprotein [J04480]",CARDIOTOX 33,−1.7 fold
same,"Effects on Transcription Level: Novel gene fragment, 178 bp, 68% SI to mouse IgG receptor (beta-Fc-gamma-RII)[M63159]",CARDIOTOX 34,+1.4 fold
same,Effects on Transcription Level: Ribosomal protein L6,"CARDIOTOX 35, GenBank X87107",+1.6 fold
same,Effects on Transcription Level: CAP2 protein (adenylyl cyclase-associated protein 2),"CARDIOTOX 36, GenBank U31935",+2.0 fold
same,Effects on Transcription Level: Alpha-platelet-derived growth factor receptor,"CARDIOTOX 37, GenBank M63837",+1.6 fold
same,Effects on Transcription Level: Rab GD1 alpha protein,"CARDIOTOX 38, GenBank X74402",−1.6 fold
same,Effects on Transcription Level: PKC-zeta-interacting protein,"CARDIOTOX 39, GenBank Y08355",+1.6 fold
same,Effects on Transcription Level: ERK or MAP kinase,"CARDIOTOX 40, GenBank X65198",+1.5 fold
same,Effects on Transcription Level: Peroxisomal multifunctional enzyme type II,"CARDIOTOX 41, GenBank U37486",+1.5 fold
same,Effects on Transcription Level: HBP23 (heme-binding protein 23 kDa),"CARDIOTOX 42, GenBank D30035",+1.7 fold
same,Effects on Transcription Level: Caveolae-associated protein,"CARDIOTOX 43, GenBank U90725",+3.1 fold
same,Effects on Transcription Level: Prenylated rab acceptor 1 (PRA1),"CARDIOTOX 44, GenBank AF025506",+1.5 fold
same,"Effects on Transcription Level: Novel gene fragment, 337 bp, 88% SI to rabbit cardiac ryanodine receptor (RyR-2)[U50465]",CARDIOTOX 45,−1.5 fold
same,"Effects on Transcription Level: Novel gene fragment, 81 bp, 85% SI to human titin [X90568]",CARDIOTOX 46,−2.2 fold
same,"Effects on Transcription Level: Novel gene fragment, 428 bp, 86% SI to human titin [X90568]",CARDIOTOX 47,−2.0 fold
same,"Effects on Transcription Level: Novel gene fragment, 374 bp, 88% SI to human titin [X90568]",CARDIOTOX 48,−2.3 fold
same,"Effects on Transcription Level: Novel gene fragment, 428 bp, 85% SI to human titin [90568]",CARDIOTOX 49,−2.2 fold
same,"Effects on Transcription Level: Novel gene fragment, 1216 bp, 93% SI to mouse mircotubule-associated protein (MAP) 1B protein [AF115776]",CARDIOTOX 50,1 fold
same,"Effects on Transcription Level: Novel gene fragment, 1115 bp, 83% SI to human KIAA0549 protein [AB011121]",CARDIOTOX 51,−2.1 fold
same,"Effects on Transcription Level: Novel gene fragment, 153 bp",CARDIOTOX 52,−1.7 fold
same,"Effects on Transcription Level: Novel gene fragment, 89 bp, 93% SI to human putative glialblastoma cell differentiation-related protein (GBDR1) [AF068195]",CARDIOTOX 53,+1.6 fold
same,Effects on Transcription Level: Rho-associated kinase beta,"CARDIOTOX 54, GenBank U61266",−1.10 fold
same,Effects on Transcription Level: Adenylate kinase 3,"CARDIOTOX 55, GenBank D13062",+1.5 fold
same,Effects on Transcription Level: Amyloid beta-peptide binding protein,"CARDIOTOX 56, GenBank AF049878",+1.5 fold
same,Effects on Transcription Level: Mitochondrial adenine nuleotide translocator,"CARDIOTOX 57, GenBank D12771",+1.5 fold
same,"Effects on Transcription Level: Novel gene fragment, 710 bp, 94% SI to mouse chromatin structural protein homolog Supt5 hp (Supt5 h)[U88539]",CARDIOTOX 58,+3.0 fold
same,"Effects on Transcription Level: Novel gene fragment, 186 bp, 66% SI to human N-acetylglucosaminyltransferase 1 (GlcNAc-TI)[M55621]",CARDIOTOX 60,−1.8 fold
same,"Effects on Transcription Level: Novel gene fragment, 238 bp, 95% SI to mouse MAP kinase-activated protein kinase 2 [X76850]",CARDIOTOX 61,−2.7 fold
same,"Effects on Transcription Level: Novel gene fragment, 173 bp, 70% SI to G protein-coupled receptor kinase GRK4 [X97568]",CARDIOTOX 62,−6.11 fold
same,"Effects on Transcription Level: Novel gene fragment, 133 bp, 77% SI to human apoptosis related protein hSARP3 [patent database: V19114]",CARDIOTOX 63,−3.2 fold
same,"Effects on Transcription Level: Novel gene fragment, 477 bp, 98% SI to peroxisomal phytanoyl-CoA hydroxylase (PHYH) [AF121345]",CARDIOTOX 64,+5.1 fold
same,"Effects on Transcription Level: Novel gene fragment, 413 bp, 95% SI to mouse dihydrolipoamide dehydrogenase (Dld) [U73445]",CARDIOTOX 65,+1.10 fold
same,"Effects on Transcription Level: Novel gene fragment, 726 bp, 76% SI to human succinate dehydrogenase flavoprotein subunit (SDH) [L21936]",CARDIOTOX 66,−4.1 fold
same,"Effects on Transcription Level: Novel gene fragment, 440 bp, 92% SI to mouse cytochrome c oxidase Vllc [X52940]",CARDIOTOX 67,+3.7 fold
same,"Effects on Transcription Level: Novel gene fragment, 276 bp, 80% SI to human titin [X90568]",CARDIOTOX 68,−11.10 fold
same,"Effects on Transcription Level: Novel gene fragment, 149 bp, 70% SI to human titin [X90568]",CARDIOTOX 69,−5.6 fold
same,"Effects on Transcription Level: Novel gene fragment, 467 bp, 94% SI to mouse gelsolin [J04953]",CARDIOTOX 70,−3.2 fold
same,"Effects on Transcription Level: Novel gene fragment, 535 bp, 90% SI to mouse slow/cardiac troponin C [M29793]",CARDIOTOX 71,−2.1 fold
